Data set [1] is described as follows: Liver microsomal stability, human liver microsomes. It counts as in vitro ADME. The following applies: 1 μM compound, NADPH, read-out: t1/2 (min) in HLM. In outline: (§1)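 Compound (1 μM final) was incubated with prewarmed human or rat liver microsomes (1 mg/mL in 100 mM phosphate master mix) plus NADPH; aliquots at 0.5–30 minutes were quenched in cold acetonitrile and quantified by LC-MS/MS. Half-life came from the ln(% remaining) versus time slope, converted to CLint (μL/min/mg prot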

The nature of data set [2]: Liver microsomal stability, rat liver microsomes. It counts as in vitro ADME. The following applies: 1 μM compound, NADPH, read-out: t1/2 (min) in RLM. A digest of the protocol: as §1
The nature of data set [3]: ADME solubility determination at pH 2.0 and pH 7.4. The following applies: aqueous buffer, thermodynamic from solid, LC-MS/MS. It counts as physicochemical. In outline: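 Dried residues of 10 mM DMSO stocks were shaken in PBS pH 7.4 or pH 2.0 for 24 hours at 25° C. and 1,100 rpm. After centrifugation, supernatants were quantified by LC-MS/MS against a standard of known concentration, applying a dilution factor.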

The mark [4] stands for this setting: PBS pH 2.0, shaken at 25° C. for 24 hours, read-out: Solubility at pH 2.0.
Where [5] appears, read: PBS pH 7.4, shaken at 25° C. for 24 hours, read-out: Solubility at pH 7.4.

Where two headings read alike, the source gives them in different places. A value given as a limit tells only on which side of the number the result lay.

Take `COc1ncnc(C2CC2)c1-c1ncc2c(OC)nn([C@@H](C)c3ccc(-c4nc(C(F)(F)F)c(Br)n4C)cc3)c2n1` [Example 188, (S)-1-(1-(4-(5-bromo-1-methyl-4-(trifluoromethyl)-1H-imidazol-2-yl)phenyl)ethyl)-6-(4-cyclopropyl-6-methoxypyrimidin-5-yl)-3-methoxy-1H-pyrazolo[3,4-d]pyrimidine]: the half-life at 1 μM in data set [1] and in data set [2] was above 25 min in each case. Besides, the solubility at 24 h in data set [3] (setting [4]) and in data set [3] (setting [5]) was below 10 µM in each case.

On to `CCn1c(-c2ccc(Cn3nc(OC)c4cnc(-c5c(OC)ncnc5C5CC5)nc43)cc2)nc(C(F)(F)F)c1Br` [Example 189], for which the half-life at 1 μM in data set [1] and in data set [2] was above 25 min each time. Further, the solubility at 24 h in data set [3] (setting [4]) and in data set [3] (setting [5]) was below 10 µM each time.

Consider `CCn1cc(C(F)(F)F)nc1-c1ccc(Cn2nc(SC)c3cnc(-c4c(OC)ncnc4C4CC4)nc32)cc1` [Example 190, 6-(4-cyclopropyl-6-methoxypyrimidin-5-yl)-1-(4-(1-ethyl-4-(trifluoromethyl)-1H-imidazol-2-yl)benzyl)-3-(methylthio)-1H-pyrazolo[3,4-d]pyrimidine], for which the half-life at 1 μM in data set [1] and in data set [2] was below 25 min each time. For the same molecule, the solubility at 24 h in data set [3] (setting [4]) and in data set [3] (setting [5]) was below 10 µM throughout.

Take `CCn1cc(C(F)(F)F)nc1-c1ccc(Cn2nc(SCc3ccc(OC)cc3)c3cnc(-c4c(OC)ncnc4C4CC4)nc32)cc1` [Example 192, 6-(4-cyclopropyl-6-methoxypyrimidin-5-yl)-1-(4-(1-ethyl-4-(trifluoromethyl)-1H-imidazol-2-yl)benzyl)-3-((4-methoxybenzyl)thio)-1H-pyrazolo[3,4-d]pyrimidine]: the half-life at 1 μM in data set [1] and in data set [2] was below 25 min throughout. For the same molecule, the solubility at 24 h in data set [3] (setting [4]) and in data set [3] (setting [5]) was below 10 µM in each case.

Regarding `COc1ncnc(C2CC2)c1-c1ncc2cnn(Cc3ccc(-n4nc(C(F)(F)F)cc4CO)cc3)c2n1` [Example 198, (1-(4-((6-(4-cyclopropyl-6-methoxypyrimidin-5-yl)-1H-pyrazolo[3,4-d]pyrimidin-1-yl)methyl)phenyl)-3-(trifluoromethyl)-1H-pyrazol-5-yl)methanol], the half-life at 1 μM in data set [1] and in data set [2] was above 25 min in each case. In addition, the solubility at 24 h in data set [3] (setting [4]) and in data set [3] (setting [5]) was below 10 µM throughout.

Take `COc1ncnc(C2CC2)c1-c1ncc2cnn(Cc3ccc(-n4nc(C(F)(F)F)cc4OC4CNC4)cc3)c2n1` [Example 200, 1-(4-(5-(azetidin-3-yloxy)-3-(trifluoromethyl)-1H-pyrazol-1-yl)benzyl)-6-(4-cyclopropyl-6-methoxypyrimidin-5-yl)-1H-pyrazolo[3,4-d]pyrimidine]: the half-life at 1 μM in data set [1] and in data set [2] was above 25 min in each case. The solubility at 24 h in data set [3] (setting [4]) and in data set [3] (setting [5]) was above 10 µM in each case.

In the case of `COc1ncnc(C2CC2)c1-c1ncc2ccn(Cc3ccc(-c4nc(C(F)(F)F)cn4C)cc3)c2n1` [Example 201, 2-(4-cyclopropyl-6-methoxypyrimidin-5-yl)-7-(4-(1-methyl-4-(trifluoromethyl)-1H-imidazol-2-yl)benzyl)-7H-pyrrolo[2,3-d]pyrimidine], the half-life at 1 μM in data set [1] and in data set [2] was below 25 min in each case. The solubility at 24 h is above 10 µM in data set [3] (setting [4]) and below 10 µM in data set [3] (setting [5]).

Consider `CC(C)c1ccccc1-c1ncc2ncn(Cc3ccc(-c4nc(C(F)(F)F)cn4C)cc3)c2n1` [Example 202, 2-(2-Isopropylphenyl)-9-(4-(1-methyl-4-(trifluoromethyl)-1H-imidazol-2-yl)benzyl)-9H-purine], for which the half-life at 1 μM in data set [1] and in data set [2] was below 25 min throughout. The solubility at 24 h is above 10 µM in data set [3] (setting [4]) and below 10 µM in data set [3] (setting [5]).

Values taken from patent publication US11485736B2 (KSQ Therapeutics, Inc., priority 2018, dated 2022).
